Data on 23 molecules can be found in ChEMBL document CHEMBL1143537, “Discovery, synthesis and biological evaluation of novel glucokinase activators” (Bioorg Med Chem Lett, 2005).

SMILES strings stand for the structures.

For one series, the target named is T1, Hexokinase-4 (Homo sapiens, UniProt P35557).
T1 sequence (P35557 whole entry): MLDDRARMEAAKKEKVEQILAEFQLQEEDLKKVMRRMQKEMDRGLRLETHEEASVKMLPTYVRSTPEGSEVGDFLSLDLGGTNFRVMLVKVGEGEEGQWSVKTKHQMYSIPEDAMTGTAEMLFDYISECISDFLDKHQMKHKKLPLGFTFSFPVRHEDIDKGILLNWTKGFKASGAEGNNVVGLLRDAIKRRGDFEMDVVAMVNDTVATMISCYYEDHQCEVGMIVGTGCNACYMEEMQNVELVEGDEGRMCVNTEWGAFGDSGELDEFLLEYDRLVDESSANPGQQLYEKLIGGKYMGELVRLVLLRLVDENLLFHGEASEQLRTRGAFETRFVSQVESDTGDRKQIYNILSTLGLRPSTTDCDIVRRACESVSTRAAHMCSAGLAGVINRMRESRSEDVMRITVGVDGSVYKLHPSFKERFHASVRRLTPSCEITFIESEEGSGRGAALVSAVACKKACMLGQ
Nature of the series: Potency in Glucokinase activation assay.

Series [1] in a line: Half life value of the compound. In kind it is ADME. The settings on record: rat.
The nature of series [2]: Volume of distribution of the compound. The class given is ADME. The settings on record: rat; read-out: Activity.
Series [3] in a line: Clearance value of the compound. In kind it is ADME, organism-based. The settings on record: rat, in vivo.

As to `CC(C)Oc1cc(OCc2ccccc2F)cc(C(=O)Nc2ccc(C(=O)O)cn2)c1`, a half-maximal response on Hexokinase-4 (EC50) required 100 nM.

Consider `CC(C)Oc1cc(OCCc2ccsc2)cc(C(=O)Nc2ccc(C(=O)O)cn2)c1`, for which the half-life (in general, the time in which the quantity being followed falls by half) in series [1] is 54 min. Moreover, in series [2], the Vd stood at 0.3 L/kg. Moreover, the clearance (commonly a measure of how efficiently the substance is removed, as volume per time) in series [3] was determined as 3.8 mL/min/kg.

Consider `COc1cc(OC)cc(OCc2ccc(C(=O)O)cn2)c1`, for which the EC50 (usually the midpoint of the concentration-response curve) at Hexokinase-4 was more than 10000 nM.

On Hexokinase-4, `CSc1ccc(OCc2ccccc2)c(NC(=O)c2ccc(C(=O)O)cn2)c1` gave an EC50 of more than 10000 nM.

On to `O=C(O)c1ccc(NC(=O)c2cccc(OCc3ccccc3Cl)c2OCc2ccccc2Cl)nc1`, for which, on Hexokinase-4, the EC50 was more than 10000 nM.

For `O=C(O)c1ccc(NC(=O)c2cc(OCc3ccccc3)cc(OCc3ccccc3)c2)nc1`, the EC50 on Hexokinase-4 stood at 400 nM.

Consider `O=C(O)c1ccc(NC(=O)c2cc(OCc3ccccc3F)cc(OCc3ccccc3F)c2)nc1`, for which the EC50 on Hexokinase-4 amounted to 90 nM.

The molecule `CC(C)Oc1cc(OCCc2cccnc2)cc(C(=O)Nc2ccc(C(=O)O)cn2)c1` gave an EC50 on Hexokinase-4 of 1260 nM. This EC50 lies about 14-fold higher than the previous one.

With `CC(C)COc1cc(OC(C)C)cc(C(=O)Nc2ccc(C(=O)O)cn2)c1`, the EC50 at Hexokinase-4 stood at 570 nM.

In turn, `O=C(O)c1ccc(CCc2cc(OCc3ccccc3)cc(OCc3ccccc3)c2)nc1` returned an EC50 on Hexokinase-4 of more than 10000 nM.

Consider `O=C(O)c1ccc(NC(=O)c2cccc(OCc3ccccc3Cl)c2)nc1`, for which the EC50 at Hexokinase-4 worked out at 910 nM.

For `O=C(O)c1ccc(NC(=O)c2ccccc2OCc2ccccc2)nc1`, on Hexokinase-4, the EC50 is more than 10000 nM.

`CC(C)Oc1cc(OCC2CCCC2)cc(C(=O)Nc2ccc(C(=O)O)cn2)c1` returned an EC50 at Hexokinase-4 of 650 nM.

`CSc1ccc(OCc2ccccc2)c(C(=O)Nc2ccc(C(=O)O)cn2)c1`: the EC50 on Hexokinase-4 worked out at 4220 nM. This EC50 lies about 6.5-fold higher than the previous one.

On Hexokinase-4, `CC(C)Oc1cc(OCCC2CCOCC2)cc(C(=O)Nc2ccc(C(=O)O)cn2)c1` yielded an EC50 of 1330 nM.

In the case of `O=C(O)c1ccc(OCc2cc(OCc3ccccc3)cc(OCc3ccccc3)c2)nc1`, the EC50 on Hexokinase-4 is more than 10000 nM.

Turning to `CC(C)Oc1cc(OCCCc2ccccc2)cc(C(=O)Nc2ccc(C(=O)O)cn2)c1`, the EC50 at Hexokinase-4 was 420 nM.

For `CC(C)Oc1cc(OCCc2ccccc2)cc(C(=O)Nc2ccc(C(=O)O)cn2)c1`, on Hexokinase-4, it took 130 nM to reach a half-maximal effect (EC50).

The molecule `CSc1ccc(OCc2ccccc2)c(/C=C/c2ccc(C(=O)O)cn2)c1` showed an EC50 at Hexokinase-4 of 3200 nM.

`O=C(O)c1ccc(C(=O)Nc2cc(OCc3ccccc3)cc(OCc3ccccc3)c2)nc1`: the EC50 at Hexokinase-4 was more than 10000 nM.

Molecule `CC(C)Oc1cc(OCc2ccccc2)cc(C(=O)Nc2ccc(C(=O)O)cn2)c1` had an EC50 on Hexokinase-4 of 290 nM. This lies in the sub-micromolar range.

`CC(C)Oc1cc(OCCc2ccncc2)cc(C(=O)Nc2ccc(C(=O)O)cn2)c1` came in with an EC50 at Hexokinase-4 of 1780 nM.

`CC(C)Oc1cc(OCCC2CCCC2)cc(C(=O)Nc2ccc(C(=O)O)cn2)c1`: a half-maximal effect at Hexokinase-4 (EC50) was put at 170 nM.
